Source: patent publication US12527782B2, “Use of hexokinase 2/mitochondria-detaching compounds for treating hexokinase-2 (HK2)-expressing cancers” (Vidac Pharma Ltd., priority 2016, dated 2026)
“Also recorded” adds a separate entry of the source.

What was measured:
[1] = test system: A431 Skin SCC cells; assay: XTT cell viability assay, A431; format: cell-based, human; conditions: Cell line/XTT, 72 hr
Method: (§1) A431 (human skin SCC), HT-297.T (human AK), and HaCaT transformed normal keratinocyte cell lines were from ATCC (Manassas, VA) and were maintained in DMEM supplemented with 10% FCS, 4 mM L-Gln, 1 mM sodium pyruvate, 100 U/mL penicillin, 1 μg/mL streptomycin. Human HK1 and HK2 plasmids were purchased from Addgene (Cambridge, MA) and were purified from E. Coli. VDAC1 was purified from sheep liver mitochondria as described (Arbel et al. 2012, incorporated herein by reference). Human skin tissue microarray (SK208 and SK 805) were purchased from US Biomax Inc. (Rockville, MD).
(§2) For XTT assays, cells were plated in 96-well plates (5,000 cells per well) for 24 hours. Cells were then incubated with different concentrations of Formula C in triplicates for 72 hr in DMEM supplemented with 0.5% FCS and 5 mM Glucose. Cell viability was evaluated using 2,3-bis-(2-methoxy-4-nitro-5-sulfophenyl)-2H-tetrazolium-5-carboxanilide (XTT)-based colorimetric assay kit (Biological Industries Ltd., Kibbutz Beit-Haemek, Israel). The optical density was measured by an Infinite 200 ELISA reader at 450 nm and reference was measured at 630 nm (Tecan, Männedorf, Switzerland).

[2] = test system: HT-297.T Actinic keratosis cells; assay: XTT cell viability assay, HT-297.T; format: cell-based, human; conditions: Actinic keratosis HT-297.T; Cell line/XTT; 72 hr
Method: as §1, §2

[3] = test system: Colon CXF HCT 116; assay: CFA, CXF HCT 116; format: cell-based, human; conditions: PDX/CFA
Method: (§3) CFA was performed by Charles River Laboratories (Freiburg, Germany) in 96-well plate format according to a modified two-layer soft agar assay. The origin of the tumor xenografts has been described (Fiebig et al. 1989, incorporated herein by reference). The list of tumors used in this study is detailed in Table 1.

[4] = test system: Leukemia (ALL) LEXFAL CCRF-CEM; assay: CFA, LEXFAL CCRF-CEM; format: cell-based, human; conditions: Cell line/CFA
Method: as §3

[5] = test system: Leukemia (AML) LEXFAM KG-1; assay: CFA, LEXFAM KG-1; format: cell-based, human; conditions: Cell line/CFA
Method: as §3

[6] = test system: Leukemia (BCLL) LEXFCM JURL-MK1; assay: CFA, LEXFCM JURL-MK1; format: cell-based, human; conditions: Cell line/CFA
Method: as §3

[7] = test system: Leukemia (BCLL) LEXFCM K-562; assay: CFA, LEXFCM K-562; format: cell-based, human; conditions: Cell line/CFA
Method: as §3

[8] = test system: Lung (NSCLC, adeno) LXFA 1012; assay: CFA, LXFA 1012; format: cell-based, human; conditions: PDX/CFA
Method: as §3

[9] = test system: Lung (NSCLC, large) LXFL 1072; assay: CFA, LXFL 1072; format: cell-based, human; conditions: PDX/CFA
Method: as §3

[10] = test system: Lung (NSCLC, adeno) LXFA 749; assay: CFA, LXFA 749; format: cell-based, human; conditions: PDX/CFA
Method: as §3

[11] = test system: Lung (SCLC) LXFS 538; assay: CFA, LXFS 538; format: cell-based, human; conditions: PDX/CFA
Method: as §3

[12] = test system: Lymphoma (Non-Hodgkin) LYXFNH RAJI; assay: CFA, LYXFNH RAJI; format: cell-based, human; conditions: Cell line/CFA
Method: as §3

[13] = test system: A431 cells; assay: Apoptosis: cytochrome C in mitochondrial fraction (WB), A431 cells; format: cell-based, human; conditions: within 2 hours of treatment, WB semi-quantification
Method: Antibodies used: anti-rabbit HK1 (C-20245) and HK2 (C-28765) from CST (Danvers, MA), anti-rabbit PPIA (ab41684, Abcam), anti-rabbit TIM22 (14927-1-AP, Proteintech Group Inc., Rosemont, IL), anti-rabbit Cytochrome C (PA1118, Boster Biological Technology, Pleasanton, CA). Detection was performed using secondary antibodies: peroxidase-conjugated Affinipure goat anti-rabbit IgG (H+L) or goat anti-mouse IgG (H+L) (111-035-003 and 115-035-003, Jackson ImmunoResearch, West Grove, PA), and development was using the ECL kit WesternBright™ ECL (K-12045-D10, Advansta, Menlo Park, California, USA).
Apoptosis induction was determined by semi-quantification of cytochrome C levels in the mitochondrial fraction analyzed by WB, following 2 hours of treatment with Formula C in A431 cells. Cleaved caspase-3 levels were analyzed following 6 hours of Formula C treatment in A431 cells, using PathScan® Cleaved Caspase-3 Sandwich ELISA kit (CST, Danvers, MA).

[14] = molecular target: T1, HK1 (Homo sapiens, UniProt P19367); assay: HK catalytic activity coupled enzymatic assay, HK1; format: biochemical; set-up: dose or concentration left out as unconfirmed; conditions: as a function of ATP or glucose; absence or presence of Formula C
T1 construct: host or cells: E. coli
Method: as §1
Hexokinase catalytic activity was determined by the coupled enzymatic assay in which hexokinase catalyzes the conversion of glucose to G6P, which is then oxidized by glucose-6-phosphate dehydrogenase (G6PDH) in the presence of NADP to form 6-Phospho-D-Gluconate and NADPH. NADPH production results in a colorimetric signal at 340 nm, which is proportional to the hexokinase catalytic activity. The readings were recorded in an ELISA plate reader Infinite 200 ELISA reader (Tecan, Männedorf, Switzerland).

[15] = test system: AK lesions; assay: Phase 2a in subjects with actinic keratosis, efficacy (lesion count); format: in vivo, human
Method: The Phase 2 clinical trial was a multiple-center randomized, double-blind, placebo-controlled, parallel-cohorts study to evaluate the efficacy, safety, tolerability, and pharmacokinetics of once-daily application of topical Formula C ointment (QD 200 mg) for 28 days in subjects with actinic keratosis. Subjects were followed for one or two months after they completed treatment (through day 56 or day 84). The primary and exploratory efficacy endpoints for the study were reduction in the number of lesions on days 56 and 84, respectively. Subjects were randomly assigned in a double-blind fashion to one of three parallel treatment cohorts (5%, or 10% Formula C, or placebo) at a ratio of 1:1:1. To qualify for the study, subjects aged 18 (inclusive) or older must have had 4-8 discrete Grade 1 or 2 AK lesions within a 25-centimeter squared area of the skin of their scalp or face. The study enrolled 93 subjects in the US and Israel.

T1 sequence (P19367 whole entry): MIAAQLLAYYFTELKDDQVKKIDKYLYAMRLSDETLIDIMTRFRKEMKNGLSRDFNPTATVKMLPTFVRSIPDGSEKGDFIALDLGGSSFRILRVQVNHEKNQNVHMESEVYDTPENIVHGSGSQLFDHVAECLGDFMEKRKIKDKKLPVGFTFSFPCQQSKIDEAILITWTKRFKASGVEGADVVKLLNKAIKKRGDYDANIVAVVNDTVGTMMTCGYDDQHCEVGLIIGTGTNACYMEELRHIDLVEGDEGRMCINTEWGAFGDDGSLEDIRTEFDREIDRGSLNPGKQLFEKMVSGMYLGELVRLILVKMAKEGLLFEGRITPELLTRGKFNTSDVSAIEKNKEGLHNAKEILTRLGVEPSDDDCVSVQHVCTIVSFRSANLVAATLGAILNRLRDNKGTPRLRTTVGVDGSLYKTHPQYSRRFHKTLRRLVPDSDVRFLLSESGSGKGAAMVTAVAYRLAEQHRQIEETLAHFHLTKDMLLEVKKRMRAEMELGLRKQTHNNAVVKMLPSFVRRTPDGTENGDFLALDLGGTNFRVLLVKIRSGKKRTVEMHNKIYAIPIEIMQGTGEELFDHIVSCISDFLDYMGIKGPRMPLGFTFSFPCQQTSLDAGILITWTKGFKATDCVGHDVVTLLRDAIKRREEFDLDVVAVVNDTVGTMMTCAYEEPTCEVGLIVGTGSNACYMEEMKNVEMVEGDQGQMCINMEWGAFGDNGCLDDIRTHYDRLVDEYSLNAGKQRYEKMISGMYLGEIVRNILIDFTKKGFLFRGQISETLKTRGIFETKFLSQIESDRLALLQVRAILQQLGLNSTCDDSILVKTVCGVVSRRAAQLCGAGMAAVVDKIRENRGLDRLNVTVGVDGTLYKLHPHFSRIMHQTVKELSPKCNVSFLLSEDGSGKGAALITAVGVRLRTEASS

CC/C=C\CC1C(=O)CCC1CC(=O)Oc1cccc2cccnc12 (stereo not drawn) [Formula C]
IC50 [1]: 14 nM | IC50 [2]: 228 nM | IC50 [3]: 4330 nM | IC50 [4]: 206 nM | IC50 [5]: 1160 nM | IC50 [6]: 1670 nM | IC50 [7]: 2340 nM | IC50 [8]: 1360 nM | IC50 [9]: 1570 nM | IC50 [10]: 1700 nM | IC50 [11]: 163 nM | IC50 [12]: 1380 nM | cytochrome C levels in the mitochondrial fraction [13]: reduction of cytochrome C levels | HK1 catalytic activity [14]: does not affect; also recorded: did not affect the catalytic activity | mean reduction in total lesion count from baseline on Day 56 ([15]; ITT-face subgroup, 10% ointment, adjusted to age and gender, P=0.023 vs Placebo): 38.8%±36.4% | median reduction in total lesion count ([15]; PP-face subgroup, 10% ointment): 50.0% | mean reduction in total lesion count from baseline on Day 56 ([15]; full ITT population (face or scalp), 10% ointment QD 200 mg 28 days, adjusted by site, age, gender, treatment field location): 32.1%±34.1% | median reduction in total lesion count from baseline on Day 56 ([15]; full Per Protocol (PP) population, 10% ointment): 25.0%
